Results as given in the NIST ThermoML archive (doi:10.1016/j.jct.2015.06.023).
Numbers after ± are expanded uncertainties.

How the values were obtained:
[1] = Liquid; for vapor or sublimation pressure: 363.2 K, Closed cell (Static) method; for mass density: 101.33 kPa, Vibrating tube method
[2] = activity coefficient (dimensionless); of the first substance listed, at infinite dilution; xn = mol fraction of the nth substance listed; details: 100 kPa, Liquid, Chromatography, x1 = 0
[3] = excess molar enthalpy (molar enthalpy of mixing); xn = mol fraction of the nth substance listed; details: 363.2 K, 100 kPa, Liquid, Flow calorimetry

CCCCO [butan-1-ol]
Details	vapor or sublimation pressure [kPa]
[1]	34.47 ± 0.54

CCCO [propan-1-ol]
Details	vapor or sublimation pressure [kPa]
[1]	76.56 ± 0.69

CCO [ethanol] + CCCCCC[n+]1ccccc1.O=S(=O)([N-]S(=O)(=O)C(F)(F)F)C(F)(F)F
[2]
Details	activity coefficient
303.2 K	1.64 ± 0.094
313.2 K	1.35 ± 0.075
323.2 K	1.28 ± 0.071
333.2 K	1.13 ± 0.061
343.2 K	0.996 ± 0.053

CCCO [propan-1-ol] + CCCCCC[n+]1ccccc1.O=S(=O)([N-]S(=O)(=O)C(F)(F)F)C(F)(F)F
[2]
Details	activity coefficient
303.2 K	1.98 ± 0.12
313.2 K	1.49 ± 0.085
323.2 K	1.47 ± 0.084
333.2 K	1.26 ± 0.07
343.2 K	1.15 ± 0.063

c1ccccc1 [benzene] + CCCCCC[n+]1ccccc1.O=S(=O)([N-]S(=O)(=O)C(F)(F)F)C(F)(F)F
[2]
Details	activity coefficient
303.2 K	0.639 ± 0.039
313.2 K	0.655 ± 0.039
323.2 K	0.627 ± 0.038
333.2 K	0.657 ± 0.039
343.2 K	0.605 ± 0.037

CCCCO [butan-1-ol] + CCCCCC[n+]1ccccc1.O=S(=O)([N-]S(=O)(=O)C(F)(F)F)C(F)(F)F
[2]
Details	activity coefficient
303.2 K	2.74 ± 0.16
313.2 K	1.72 ± 0.1
323.2 K	1.59 ± 0.091
333.2 K	1.42 ± 0.08
343.2 K	1.25 ± 0.069

CCCCCC[n+]1ccccc1.O=S(=O)([N-]S(=O)(=O)C(F)(F)F)C(F)(F)F [1-hexylpyridinium bis(trifluromethylsulfonyl)imide] + CCCCO
[3]
Details	excess molar enthalpy [kcal/mol]
x2 = 0.043	0.0722 ± 0.00502
x2 = 0.083	0.14 ± 0.00789
x2 = 0.157	0.258 ± 0.0134
x2 = 0.222	0.356 ± 0.0182
x2 = 0.282	0.436 ± 0.0222
x2 = 0.384	0.55 ± 0.0287
x2 = 0.469	0.619 ± 0.0311
x2 = 0.572	0.661 ± 0.0335
x2 = 0.655	0.652 ± 0.0335
x2 = 0.743	0.594 ± 0.0311
x2 = 0.812	0.505 ± 0.0263
x2 = 0.868	0.399 ± 0.0206
x2 = 0.914	0.284 ± 0.0153
x2 = 0.952	0.168 ± 0.0108
x2 = 0.985	0.0549 ± 0.00741

C1CCCCC1 [cyclohexane] + CCCCCC[n+]1ccccc1.O=S(=O)([N-]S(=O)(=O)C(F)(F)F)C(F)(F)F
[2]
Details	activity coefficient
303.2 K	5.19 ± 0.31
313.2 K	4.86 ± 0.29
323.2 K	4.68 ± 0.28
333.2 K	4.41 ± 0.26
343.2 K	4.3 ± 0.26

Cc1ccccc1 [toluene] + CCCCCC[n+]1ccccc1.O=S(=O)([N-]S(=O)(=O)C(F)(F)F)C(F)(F)F
[2]
Details	activity coefficient
303.2 K	0.828 ± 0.046
313.2 K	0.868 ± 0.047
323.2 K	0.82 ± 0.045
333.2 K	0.847 ± 0.047
343.2 K	0.882 ± 0.048

CCCCCC[n+]1ccccc1.O=S(=O)([N-]S(=O)(=O)C(F)(F)F)C(F)(F)F [1-hexylpyridinium bis(trifluromethylsulfonyl)imide]
[1]
Details	mass density [kg/m3]
293.15 K	1389.16 ± 1.1
298.15 K	1384.56 ± 1.1
299.15 K	1383.67 ± 1.1
303.15 K	1380.22 ± 1.1
313.15 K	1371.26 ± 1.1
323.15 K	1362.38 ± 1.1
333.15 K	1353.54 ± 1.1
343.15 K	1344.76 ± 1.1
353.15 K	1336.02 ± 1.1

CCCCCC[n+]1ccccc1.O=S(=O)([N-]S(=O)(=O)C(F)(F)F)C(F)(F)F [1-hexylpyridinium bis(trifluromethylsulfonyl)imide] + CCCO
[3]
Details	excess molar enthalpy [kcal/mol]
x2 = 0.052	0.0851 ± 0.0055
x2 = 0.1	0.165 ± 0.00884
x2 = 0.185	0.299 ± 0.0155
x2 = 0.259	0.402 ± 0.0206
x2 = 0.324	0.483 ± 0.0239
x2 = 0.432	0.589 ± 0.0287
x2 = 0.519	0.643 ± 0.0335
x2 = 0.621	0.661 ± 0.0335
x2 = 0.699	0.633 ± 0.0311
x2 = 0.779	0.56 ± 0.0287
x2 = 0.841	0.462 ± 0.0237
x2 = 0.889	0.358 ± 0.0186
x2 = 0.928	0.251 ± 0.0141
x2 = 0.961	0.146 ± 0.01
x2 = 0.988	0.0477 ± 0.00765
